In patent publication US20240018147A1, “SALT OF COMPOUND FOR DEGRADING BTK, CRYSTAL FORM THEREOF, AND USE THEREOF IN MEDICINE” (HAISCO PHARMACEUTICALS PTE. LTD., priority 2020, published 2024):

Experiments:
[1] = target: BTK (Homo sapiens (Human), UniProt Q06187); assay: Detection of BTK degradation in Mino cells; format: cell-based
Protocol: The Mino human mantle cell lymphoma cell line was purchased from ATCC and cultured under conditions of RPMI-1640+15% FBS+1% double antibody in a 37° C., 5% CO2 incubator. Cells were plated in a 6-well plate, with 5×10^5 cells/well. After plating, compounds at different concentrations were added and cultured in a 37° C., 5% CO2 incubator for 48 h. After culturing, the cells were collected. The cells were lysed on ice for 15 minutes by adding RIPA lysis buffer (Beyotime, Cat. P0013B) and centrifuged at 12000 rpm at 4° C. for 10 minutes. The protein sample of the supernatant was collected, subjected to protein quantification by using a BCA kit (Beyotime, Cat. P0009) and then diluted to 0.25 mg/mL. The expressions of BTK (CST, Cat. 85475) and the internal reference β-actin (CST, Cat. 37005) were detected using a fully automated western blot quantitative analyzer (Proteinsimple) with a kit (Protein simple, Cat. SM-W004). The expression level of BTK relative to the internal reference was calculated by using Compass software, and the DC50 value was calculated by using Origen9.2 software according to formula (1). Specifically, the BTKadministration denoted the expression level of BTK in administration groups at different doses, and the BTKvehicle denoted the expression level of BTK in the vehicle control group.
BTK %=BTKadministration/BTKvehicle×100 formula (1)

[2] = target: BTK protein (Mus musculus (Mouse), UniProt P35991); assay: Detection of BTK protein degradation in spleen of mice; format: in vivo; conditions: female ICR mice, intragastric, 3 consecutive days; conclusion in words
BTK protein, sequence (P35991 whole entry): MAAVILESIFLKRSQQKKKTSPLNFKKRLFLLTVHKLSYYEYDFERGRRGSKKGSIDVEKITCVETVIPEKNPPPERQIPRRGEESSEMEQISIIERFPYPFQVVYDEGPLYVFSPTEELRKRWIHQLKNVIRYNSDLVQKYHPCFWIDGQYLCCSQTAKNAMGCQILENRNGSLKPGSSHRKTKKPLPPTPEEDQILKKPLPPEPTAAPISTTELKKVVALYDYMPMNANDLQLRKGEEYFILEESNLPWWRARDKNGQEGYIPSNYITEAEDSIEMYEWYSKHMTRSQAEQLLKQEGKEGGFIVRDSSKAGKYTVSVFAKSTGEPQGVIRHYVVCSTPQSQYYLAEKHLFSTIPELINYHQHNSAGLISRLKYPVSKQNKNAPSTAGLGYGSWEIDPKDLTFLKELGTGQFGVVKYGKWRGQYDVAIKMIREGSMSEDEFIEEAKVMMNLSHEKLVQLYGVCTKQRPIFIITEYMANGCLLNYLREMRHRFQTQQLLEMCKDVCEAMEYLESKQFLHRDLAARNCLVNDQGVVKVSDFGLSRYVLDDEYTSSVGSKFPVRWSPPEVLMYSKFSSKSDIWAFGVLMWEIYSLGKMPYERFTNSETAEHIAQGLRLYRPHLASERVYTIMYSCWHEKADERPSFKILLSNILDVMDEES
Protocol: Female ICR mice, 6-8 weeks old, were purchased from Beijing Vital River Laboratory Animal Technology Co., Ltd., and the experiment was started after 3 days of adaptation. After 3 consecutive days of intragastric administration of compounds at different doses, the spleens of mice were taken. The spleen cells were collected, lysed on ice for 15 min by adding RIPA lysis buffer (Beyotime, Cat. P0013B), and then centrifuged at 12000 rpm at 4° C. for 10 min. The protein sample of the supernatant was collected, subjected to protein quantification by using a BCA kit (Beyotime, Cat. P0009) and then diluted to 0.25 mg/mL. The expressions of BTK (CST, Cat. 8547S) and the internal reference R-actin (CST, Cat. 3700S) were detected by using a fully automated western blot quantitative analyzer (Proteinsimple). The expression level of BTK relative to the internal reference was calculated by using Compass software, and the DD50 value was calculated by using Origen9.2 software according to formula (2). Specifically, the BTKadministration denoted the expression level of BTK in administration groups at different doses, and the BTKvehicle denoted the expression level of BTK in the vehicle control group.
BTK %=BTKadministration/BTKvehicle×100% formula (2)

BTK, sequence (Q06187 whole entry): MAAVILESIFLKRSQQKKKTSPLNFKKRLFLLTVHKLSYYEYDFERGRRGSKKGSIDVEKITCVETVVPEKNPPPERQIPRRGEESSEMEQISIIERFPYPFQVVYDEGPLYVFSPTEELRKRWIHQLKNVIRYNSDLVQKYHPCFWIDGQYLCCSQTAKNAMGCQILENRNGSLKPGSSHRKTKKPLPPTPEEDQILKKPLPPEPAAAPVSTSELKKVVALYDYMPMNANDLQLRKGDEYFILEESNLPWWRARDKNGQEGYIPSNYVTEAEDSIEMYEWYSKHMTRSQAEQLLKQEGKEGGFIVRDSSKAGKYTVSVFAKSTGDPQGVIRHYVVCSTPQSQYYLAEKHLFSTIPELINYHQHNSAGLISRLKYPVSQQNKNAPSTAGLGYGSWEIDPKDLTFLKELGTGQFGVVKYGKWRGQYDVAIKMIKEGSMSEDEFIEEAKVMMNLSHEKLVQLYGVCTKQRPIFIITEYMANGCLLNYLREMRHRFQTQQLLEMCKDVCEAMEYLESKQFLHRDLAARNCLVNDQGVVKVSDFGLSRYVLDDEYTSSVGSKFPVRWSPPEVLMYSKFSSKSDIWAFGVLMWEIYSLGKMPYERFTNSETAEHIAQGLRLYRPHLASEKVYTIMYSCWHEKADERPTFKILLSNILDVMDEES

Nc1ncnc2c1c(-c1ccc(Oc3ccccc3)cc1)nn2C1CCN(C2CCN(C3CN(c4ccc5c(c4)C(=O)N(C4CCC(=O)NC4=O)C5=O)C3)CC2)CC1 (stereo not drawn) [Compound 2, 5-(3-(4-(4-amino-3-(4-phenoxyphenyl)-1H-pyrazolo[3,4-d]pyrimidin-1-yl)-[1,4′-bipiperidin]-1′-yl)azetidin-1-yl)-2-(2,6-dioxopiperidin-3-yl)isoindoline-1,3-dione]
DC50 ([1]; Mino cells, 48 h, western blot, BTK relative to β-actin): 0.0229 µM
degradation effect on BTK in Mino cells ([1]; conclusion in words): significant degradation effect
degradation effect on BTK proteins in spleens of mice [2]: significant degradation effect
